Patent US4083994A, “Choleretics” (Hisamitsu Pharmaceutical Co., Inc., priority 1975, dated 1978)

Legend:
[1] = test system: bile secretion; assay: Bile secretion test in rats; format: in vivo, male Wistar rats; conditions: oral; for Bile volume secreted after administration: rat, volume in 1 h before administration = 100%; for Volume of bile secreted relative to one hour before administration: rats
Experimental: Male Wistar rats weighing 200-210 g were fasted overnight and laparotomized under urethane anesthesia(Subcutaneous injection at a dose of 1.5 g/kg). A polyethylene tube was inserted into the common bile duct. The bile was collected for one hour from 30 minutes after the operation. Subsequently, the animals were given orally the test drugs, each 50 mg of which was suspended in 1 ml of 5% gum arabic aqueous solution. The bile was collected for 5 hours after the drug administration. The volume of the bile secreted at hourly intervals after the drug administration was expressed in %, defining the volume secreted for one hour before the drug administration as 100%, as shown in Table 1.
About 500 mg of p-menth-1-ene-8,9-diol were weighed accurately, and suspended in 10 ml of 5% gum arabic aqueous solution. […] Male rats of Wistar strain weighing 200 g were fasted overnight, anesthetized by subcutanous injection of 0.3 g of urethane and laparotomized. A polyethylene tube was inserted into the common bile duct. The bile was collected for one hour from 30 minutes after the operation. […]
About 500 mg of 9-acetoxy-p-menth-1-en-8-ol was weighed accurately and suspended in 10ml of 5% gum arabic aqueous solution. […] Male rats of Wistar strain weighing about 210 g were fasted overnight and anesthetized by subcutaneous injection of 0.32 g of urethane and then laparotomized. A polyethylene tube was inserted into the common bile duct, and the bile secreted through the duct was collected for one hour from 30 minutes after the operation. Subsequently, the choleretic of the present invention was administered orally in a volume of 1.05 ml (250 mg/kg).

[2] = test system: bile secretion; assay: Bile secretion test in dogs; format: in vivo, male mongrel dogs; conditions: into duodenum; for Bile volume secreted after administration: dog, volume in 1 h before administration = 100%; for Volume of bile secreted relative to one hour before administration: one dog (7.6 kg)
Experimental: Male mongrel dogs weighing approximately 8 kg were anesthetized with intravenous injection of […] of pentobarbital and further with subcutaneous injection of urethane at a dose of 1.0 g/kg and laparotomized. One canula was inserted into the common bile duct and directed to the liver for collection of the bile, and the other canula was inserted into the duodenum for the drug administration. The cholecystic duct was ligated and the gallbladder bile was aspirated with an injection syringe. The operation was finished by suture of the peritoneum. The bile was collected for one hour from 30 minutes after the operation. The animals were given the test drugs, each 50 mg of which was suspended in 1 ml of 5% gum arabic aqueous solution, through the canula for the drug administration. The bile was collected at hourly intervals for 6 hours after the drug administration. Defining the volume of the bile secreted for one hour before the drug administration as 100%, the volume secreted at hourly intervals after the drug administration was expressed in %, as shown in Table 2.
The mean volume secreted for one hour before the drug administration was 1798 μl.
This suspension was used as a choleretic of the present invention. A male mongrel dog weighing 8.8 kg was fasted overnight and anesthetized by subcutaneous injection of 1.0 mg/kg of urethane and laparotomized. One canula was inserted into the common bile duct and directed to the liver for collection of the bile, and the other canula was also inserted into the duodenum for the drug administration. Subsequently, the cholecystic duct was ligated and the gallbladder bile was aspirated with an injection syringe. The operation was finished after suturing the peritoneum. The bile was collected for one hour from 30 minutes after the operation, and subsequently, 44 ml of the test drug prepared above (250 mg/kg) was given through the canula for the drug administration. The volume of the bile secreted for the first, second and third one hour after the drug administration were 2.2, 2.1 and 1.9 times larger, respectively, than that secreted for one hour before the drug administration.
About 2.5 g of 9-propionyloxy-p-menth-1-en-8-ol was weighed accurately and suspended in 50 ml of 5% gum arabic aqueous solution. This suspension was used as a choleretic of the present invention. A male mongrel dog weighing 7.6 kg was fasted overnight and anesthetized by subcutaneous injection of 1.0 mg/kg of urethane and then laparotomized. One canula was inserted into the common bile duct and directed to the liver for collection of the bile, and the other canula into the duodenum for the drug administration. Subsequently, the cholecystic duct was ligated and the gallbladder bile was aspirated with an injection syringe. The operation was finished by suturing the peritoneum. The bile was collected for one hour from 30 minutes after the operation, and 50 ml (330 mg/kg) of the test drug prepared above was administered through the canula for the drug administration. The volume of the bile secreted for the first, second and third one hour after the drug administration was 3.2, 5.0 and 4.7 times larger, respectively, than that secreted for one hour before the drug administration.

[3] = Acute toxicity test in mice; conditions: mouse, in vivo, oral, parentheses: 95% confidence limit
Experimental: The test drugs were suspended in 5% gum arabic aqueous solution to make 50 mg/ml, and given orally male mice of ddY strain weighing 18-22 g and male rats of Wistar strain weighing 95-120 g. The LD50 values were calculated from the mortality of the animals that ensued during the 72 hours following the drug administration

[4] = test system: sleeping time induced by hexobarbital; assay: Effects on the sleeping time induced by hexobarbital (metabolism function of the liver); format: in vivo, male rats of Wistar strain; conditions: rats, 250 mg/kg oral once daily for a week; hexobarbital sodium 100 mg/kg i.p.; control 17.1 ± 0.9
Experimental: About 500 mg of the test drugs were weighed accurately and suspended in 2 ml of 5% gum arabic aqueous solution. Ten male rats of Wistar strain were used per group and given orally the test drugs prepared above in a volume of 0.1 ml/100 g body weight (equivalent to 250 mg/kg), once daily (at 8.30-9.00 a.m.), for a week. The animals were fasted overnight after the last administration of the test drugs. Subsequently, 10% hexobarbital sodium aqueous solution was injected intraperitoneally in a volume of 0.1 ml (equivalent to 100 mg/kg) and the sleeping time was measured. The animals were regarded as sleeping when the loss of righting reflex persist for more than 30 seconds.

CCC(=O)OCC(C)(O)C1CC=C(C)CC1 (centres unmarked) [9-Propionyloxy-p-menth-1-en-8-ol, 9-propionyloxy-p-menth-1-en-8-ol]
Bile volume secreted after administration ([1]; 110 mg/kg, 0-1 hr): 135% | Bile volume secreted after administration ([1]; 110 mg/kg, 1-2 hr): 117% | Bile volume secreted after administration ([1]; 110 mg/kg, 2-3 hr): 100% | Bile volume secreted after administration ([1]; 110 mg/kg, 3-4 hr): 87% | Bile volume secreted after administration ([1]; 110 mg/kg, 4-5 hr): 74% | Bile volume secreted after administration ([1]; 330 mg/kg, 0-1 hr): 147% | Bile volume secreted after administration ([1]; 330 mg/kg, 1-2 hr): 139% | Bile volume secreted after administration ([1]; 330 mg/kg, 2-3 hr): 118% | Bile volume secreted after administration ([1]; 330 mg/kg, 3-4 hr): 104% | Bile volume secreted after administration ([1]; 330 mg/kg, 4-5 hr): 86% | Bile volume secreted after administration ([1]; 990 mg/kg, 0-1 hr): 176% | Bile volume secreted after administration ([1]; 990 mg/kg, 1-2 hr): 174% | Bile volume secreted after administration ([1]; 990 mg/kg, 2-3 hr): 153% | Bile volume secreted after administration ([1]; 990 mg/kg, 3-4 hr): 130% | Bile volume secreted after administration ([1]; 990 mg/kg, 4-5 hr): 120% | Bile volume secreted after administration ([2]; 330 mg/kg, 0-1 hr): 322% | Bile volume secreted after administration ([2]; 330 mg/kg, 1-2 hr): 497% | Bile volume secreted after administration ([2]; 330 mg/kg, 2-3 hr): 472% | Bile volume secreted after administration ([2]; 330 mg/kg, 3-4 hr): 402% | Bile volume secreted after administration ([2]; 330 mg/kg, 4-5 hr): 367% | Bile volume secreted after administration ([2]; 330 mg/kg, 5-6 hr): 324% | Volume of bile secreted relative to one hour before administration ([2]; 330 mg/kg, first hour): 3.2 times | Volume of bile secreted relative to one hour before administration ([2]; 330 mg/kg, second hour): 5.0 times | Volume of bile secreted relative to one hour before administration ([2]; 330 mg/kg, third hour): 4.7 times | LD50 at 72 h [3]: > 4000 mg/kg

CC1=CCC(C(C)(O)CO)CC1 (centres unmarked) [p-Menth-1-ene-8,9-diol, p-menth-1-ene-8,9-diol]
Bile volume secreted after administration ([1]; 80 mg/kg, 0-1 hr): 155% | Bile volume secreted after administration ([1]; 80 mg/kg, 1-2 hr): 118% | Bile volume secreted after administration ([1]; 80 mg/kg, 2-3 hr): 101% | Bile volume secreted after administration ([1]; 80 mg/kg, 3-4 hr): 93% | Bile volume secreted after administration ([1]; 80 mg/kg, 4-5 hr): 85% | Bile volume secreted after administration ([1]; 250 mg/kg, 0-1 hr): 213% | Bile volume secreted after administration ([1]; 250 mg/kg, 1-2 hr): 170% | Bile volume secreted after administration ([1]; 250 mg/kg, 2-3 hr): 122% | Bile volume secreted after administration ([1]; 250 mg/kg, 3-4 hr): 99% | Bile volume secreted after administration ([1]; 250 mg/kg, 4-5 hr): 89% | Bile volume secreted after administration ([1]; 750 mg/kg, 0-1 hr): 218% | Bile volume secreted after administration ([1]; 750 mg/kg, 1-2 hr): 199% | Bile volume secreted after administration ([1]; 750 mg/kg, 2-3 hr): 175% | Bile volume secreted after administration ([1]; 750 mg/kg, 3-4 hr): 153% | Bile volume secreted after administration ([1]; 750 mg/kg, 4-5 hr): 139% | Volume of bile secreted relative to one hour before administration ([1]; 250 mg/kg, first hour): 2.1 times | Volume of bile secreted relative to one hour before administration ([1]; 250 mg/kg, second hour): 1.7 times | Volume of bile secreted relative to one hour before administration ([1]; 250 mg/kg, third hour): 1.2 times | Bile volume secreted after administration ([2]; 250 mg/kg, 0-1 hr): 176% | Bile volume secreted after administration ([2]; 250 mg/kg, 1-2 hr): 168% | Bile volume secreted after administration ([2]; 250 mg/kg, 2-3 hr): 122% | Bile volume secreted after administration ([2]; 250 mg/kg, 3-4 hr): 65% | Bile volume secreted after administration ([2]; 250 mg/kg, 4-5 hr): 41% | LD50 at 72 h [3]: 1800 mg/kg | Sleeping time [4]: 17.8 ± 0.3 min
